Test results as given in the NIST ThermoML archive (doi:10.1021/je060271a).

Conditions: 283.15 K, Liquid, Vibrating tube method

CCCC(=O)OCC(COC(=O)CCC)(COC(=O)CCC)COC(=O)CCC [pentaerythritol tetrabutyrate]
Conditions | mass density [kg/m3]
5069.8 kPa | 1062.1
5785 kPa | 1062.4
5790.3 kPa | 1062.5
5796.4 kPa | 1062.5
6791.4 kPa | 1063
7204.6 kPa | 1063.2
7259.3 kPa | 1063.3
7320.1 kPa | 1063.4
7411.4 kPa | 1063.4
7437.1 kPa | 1063.4
7462.9 kPa | 1063.3
7545.9 kPa | 1063.4
7572.6 kPa | 1063.5
7606 kPa | 1063.5
7632.9 kPa | 1063.5
7657.7 kPa | 1063.5
7681.7 kPa | 1063.5
7710.4 kPa | 1063.4
7734.6 kPa | 1063.6
8293.1 kPa | 1063.8
11358 kPa | 1065.7
11377 kPa | 1065.7
11399 kPa | 1065.7
11419 kPa | 1065.6
11438 kPa | 1065.6
11456 kPa | 1065.7
11667 kPa | 1065.7
11687 kPa | 1066
11708 kPa | 1065.9
11731 kPa | 1065.8
11751 kPa | 1065.9
11775 kPa | 1066
11795 kPa | 1066
11816 kPa | 1065.9
11836 kPa | 1065.9
11862 kPa | 1065.9
11882 kPa | 1065.9
11903 kPa | 1065.9
11928 kPa | 1066
11949 kPa | 1066
11995 kPa | 1065.9
12016 kPa | 1066
13152 kPa | 1066.7
13178 kPa | 1066.7
13234 kPa | 1066.6
13898 kPa | 1067.1
15509 kPa | 1068
15590 kPa | 1068
15620 kPa | 1068.1
15664 kPa | 1068.1
15701 kPa | 1068
15739 kPa | 1068
15784 kPa | 1068.2
15822 kPa | 1068.1
15860 kPa | 1068.2
15906 kPa | 1068.2
17727 kPa | 1069.2
17738 kPa | 1069.3
17748 kPa | 1069.2
17759 kPa | 1069.3
17769 kPa | 1069.2
17778 kPa | 1069.1
18091 kPa | 1069.4
18103 kPa | 1069.5
18112 kPa | 1069.4
18122 kPa | 1069.4
18135 kPa | 1069.5
18145 kPa | 1069.4
18166 kPa | 1069.5
18176 kPa | 1069.4
18264 kPa | 1069.5
18274 kPa | 1069.6
18296 kPa | 1069.4
18306 kPa | 1069.5
18318 kPa | 1069.6
18328 kPa | 1069.5
18338 kPa | 1069.5
18351 kPa | 1069.5
18864 kPa | 1069.8
18899 kPa | 1069.8
18956 kPa | 1069.9
18967 kPa | 1069.8
18980 kPa | 1069.6
18991 kPa | 1069.8
19143 kPa | 1069.9
19349 kPa | 1070.2
19360 kPa | 1070.1
19371 kPa | 1070.1
19383 kPa | 1070
19397 kPa | 1070.1
19419 kPa | 1070.1
19433 kPa | 1070.3
19458 kPa | 1070.2
19470 kPa | 1070.1
20345 kPa | 1070.6
20358 kPa | 1070.6
20371 kPa | 1070.7
20383 kPa | 1070.7
20398 kPa | 1070.7
20411 kPa | 1070.7
20426 kPa | 1070.8
20439 kPa | 1070.8
20452 kPa | 1070.6
20631 kPa | 1070.8
20647 kPa | 1070.9
20659 kPa | 1070.9
20673 kPa | 1070.8
20689 kPa | 1070.8
20702 kPa | 1070.8
20718 kPa | 1070.8
20731 kPa | 1070.8
20744 kPa | 1070.9
20757 kPa | 1070.9
20943 kPa | 1071
20960 kPa | 1071
20973 kPa | 1071
20987 kPa | 1071
21354 kPa | 1071.2
21371 kPa | 1071.2
21386 kPa | 1071.4
21583 kPa | 1071.3
21614 kPa | 1071.3
21629 kPa | 1071.5
21646 kPa | 1071.3
21661 kPa | 1071.2
21676 kPa | 1071.4
21691 kPa | 1071.4
21708 kPa | 1071.3
21738 kPa | 1071.4
21756 kPa | 1071.4
21770 kPa | 1071.4
21833 kPa | 1071.5
21848 kPa | 1071.5
21866 kPa | 1071.5
21881 kPa | 1071.5
21895 kPa | 1071.5
21910 kPa | 1071.5
21928 kPa | 1071.5
21943 kPa | 1071.7
21958 kPa | 1071.6
21976 kPa | 1071.6
21991 kPa | 1071.5
22008 kPa | 1071.6
22350 kPa | 1071.7
22366 kPa | 1071.8
22381 kPa | 1071.6
